Measurements as given in ChEMBL document CHEMBL1201862, “PubChem BioAssay data set” (2004).
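48-hour exposure; five concentrations; linearly interpolated endpoints. GI50 marks 50% less growth.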 The source made the active and inactive calls. No stated cut-off is given here; in the data, active = GI50 up to about 1.1 µM and inactive = higher.

How the values were obtained:
Assay in all cases: NCI anticancer screen, dose series, 48 h
OVCAR-5 = test system: OVCAR-5
TK-10 = test system: TK-10
MDA-MB-435 = test system: MDA-MB-435
HOP-62 = test system: HOP-62
OVCAR-4 = test system: OVCAR-4
SK-OV-3 = test system: SK-OV-3
SNB-75 = test system: SNB-75
SK-MEL-28 = test system: SK-MEL-28
OVCAR-8 = test system: OVCAR-8
Malme-3M = test system: Malme-3M
COLO 205 = test system: COLO 205
M14 = test system: M14
RXF 393 = test system: RXF 393
EKVX = test system: EKVX
SR = test system: SR
MCF7 = test system: MCF7
SF-539 = test system: SF-539
T47D = test system: T47D
SF-295 = test system: SF-295

Row | SMILES | GI50 (OVCAR-5) | GI50 (TK-10) | GI50 (MDA-MB-435) | GI50 (HOP-62) | GI50 (OVCAR-4) | GI50 (SK-OV-3) | GI50 (SNB-75) | GI50 (SK-MEL-28) | GI50 (OVCAR-8) | GI50 (Malme-3M) | GI50 (COLO 205) | GI50 (M14) | GI50 (RXF 393) | GI50 (EKVX) | GI50 (SR) | GI50 (MCF7) | GI50 (SF-539) | GI50 (T47D) | GI50 (SF-295)
1 | O=C(CCc1ccccc1)NCCc1ccc(O)c(O)c1 | > 31.6 µM (inactive) | > 100 µM (inactive) | 15.6 µM (inactive) | > 40.6 µM (inactive) | 10.4 µM (inactive) | 27.2 µM (inactive) | 84.5 µM (inactive) | 45.6 µM (inactive) | 30.3 µM (inactive) | 45.3 µM (inactive) | 17 µM (inactive) | > 54.8 µM (inactive) | > 100 µM (inactive) | 62.4 µM (inactive) | 4.01 µM (inactive) | 31.8 µM (inactive) | 23.2 µM (inactive) | 59.4 µM (inactive) | > 53.3 µM (inactive)
2 | Cc1[nH]c2ccccc2c1-c1cc(-c2cc(-c3c(C)[nH]c4ccccc34)on2)no1 | > 100 µM (inactive) | > 100 µM (inactive) | 25.8 µM (inactive) | 85.9 µM (inactive) | > 100 µM (inactive) | 77.6 µM (inactive) | 18.2 µM (inactive) | > 100 µM (inactive) | > 100 µM (inactive) | 63.7 µM (inactive) | 84.1 µM (inactive) | 37.7 µM (inactive) | 37.7 µM (inactive) | 54.7 µM (inactive) | 38.8 µM (inactive) | 55 µM (inactive) | 49 µM (inactive) | 85.5 µM (inactive) | 40.2 µM (inactive)
3 | Nc1cc(S(=O)(=O)O)cc2ccc(S(=O)(=O)O)cc12 | > 100 µM (inactive) | > 100 µM (inactive) | > 100 µM (inactive) | > 100 µM (inactive) | > 100 µM (inactive) | > 100 µM (inactive) | > 100 µM (inactive) | > 100 µM (inactive) | > 100 µM (inactive) | > 100 µM (inactive) | > 100 µM (inactive) | > 100 µM (inactive) | > 100 µM (inactive) | > 100 µM (inactive) | > 100 µM (inactive) | > 100 µM (inactive) | > 100 µM (inactive) | > 100 µM (inactive) | > 100 µM (inactive)
4 | COc1cc2cc3c4c(cc(OC)c(OC)c4c2cc1OC)CCN3C | 21 µM (inactive) | 4.42 µM (inactive) | 5.56 µM (inactive) | 11.9 µM (inactive) | 2.51 µM (inactive) | 9.18 µM (inactive) | 8.13 µM (inactive) | 18.1 µM (inactive) | 12.7 µM (inactive) | 8.53 µM (inactive) | 7.64 µM (inactive) | 6.9 µM (inactive) | 1.83 µM (inactive) | 15.3 µM (inactive) | 1.25 µM (inactive) | 2.63 µM (inactive) | 9.25 µM (inactive) | 1.67 µM (inactive) | 3.07 µM (inactive)
5 | N#Cc1c(Nc2ccccc2)[n+]([O-])c2ccc(Cl)cc2[n+]1[O-] | 15.8 µM (inactive) | 4.06 µM (inactive) | 8.99 µM (inactive) | 7.67 µM (inactive) | 1.56 µM (inactive) | 21.2 µM (inactive) | 25.9 µM (inactive) | 12.9 µM (inactive) | 2.77 µM (inactive) | 7.59 µM (inactive) | 2.33 µM (inactive) | 7.57 µM (inactive) | 9.77 µM (inactive) | 4.3 µM (inactive) | 3.16 µM (inactive) | 3.64 µM (inactive) | 5.22 µM (inactive) | 6.65 µM (inactive) | 4.52 µM (inactive)
6 | CN(C)/C=N\c1cccc2cnccc12 | > 100 µM (inactive) | > 100 µM (inactive) | > 100 µM (inactive) | > 100 µM (inactive) | > 100 µM (inactive) | > 100 µM (inactive) | 44.8 µM (inactive) | > 100 µM (inactive) | > 100 µM (inactive) | > 100 µM (inactive) | > 100 µM (inactive) | > 100 µM (inactive) | > 100 µM (inactive) | > 100 µM (inactive) | > 100 µM (inactive) | > 100 µM (inactive) | > 100 µM (inactive) | > 100 µM (inactive) | > 100 µM (inactive)
7 | Cc1nc(O)nc(N/N=C/c2ccc(Cl)c(Cl)c2)c1C(=O)Nc1ccc(Cl)c(Cl)c1 | 26.5 µM (inactive) | 11.5 µM (inactive) | 11.1 µM (inactive) | 10.8 µM (inactive) | 3.62 µM (inactive) | 14 µM (inactive) | 12.3 µM (inactive) | 8.97 µM (inactive) | 4.27 µM (inactive) | 11.6 µM (inactive) | 13.1 µM (inactive) | 5.22 µM (inactive) | 15.2 µM (inactive) | 30 µM (inactive) | 36.3 µM (inactive) | 18.5 µM (inactive) | 15.7 µM (inactive) | 24.7 µM (inactive) | 10.6 µM (inactive)
8 | COC(=O)/C=C(/C(=O)OC)c1cc2ccc3c([nH]c4ccccc43)c(C)c-2c1 | 3.56 µM (inactive) | 15.2 µM (inactive) | 3.94 µM (inactive) | 12.1 µM (inactive) | 4.95 µM (inactive) | 7.69 µM (inactive) | 5.26 µM (inactive) | 5.55 µM (inactive) | 3.03 µM (inactive) | 5.21 µM (inactive) | 1.75 µM (inactive) | 4.37 µM (inactive) | 7.31 µM (inactive) | 3.76 µM (inactive) | 2.74 µM (inactive) | 2.79 µM (inactive) | 11.4 µM (inactive) | 3.6 µM (inactive) | 4.12 µM (inactive)
9 | COc1cc2oc(=O)cc(C)c2cc1[N+](=O)[O-] | 28.1 µM (inactive) | 35.7 µM (inactive) | 20.1 µM (inactive) | 41.6 µM (inactive) | 35.1 µM (inactive) | 84.1 µM (inactive) | 57.5 µM (inactive) | 22.6 µM (inactive) | 18.8 µM (inactive) | 20.1 µM (inactive) | 23.9 µM (inactive) | 16.7 µM (inactive) | 15.1 µM (inactive) | > 59.4 µM (inactive) | 13 µM (inactive) | 25.5 µM (inactive) | 23.8 µM (inactive) | 20.7 µM (inactive) | 51.4 µM (inactive)
10 | CC(C)C[C@H](NC(=O)[C@H](Cc1ccccc1)NC(=O)CCc1ccccc1)B(O)O | < 0.01 µM (active) | < 0.01 µM (active) | < 0.01 µM (active) | < 0.01 µM (active) | < 0.01 µM (active) | < 0.01 µM (active) | < 0.01 µM (active) | < 0.01 µM (active) | < 0.01 µM (active) | < 0.01 µM (active) | < 0.01 µM (active) | < 0.01 µM (active) | < 0.01 µM (active) | < 0.01 µM (active) | < 0.01 µM (active) | < 0.01 µM (active) | < 0.01 µM (active) | < 0.01 µM (active) | < 0.01 µM (active)
11 | CC1=CC(=O)c2c(O)cccc2C1=O [PLUMBAGIN] | 1.94 µM (inactive) | 1.71 µM (inactive) | 1.73 µM (inactive) | 5.52 µM (inactive) | 1.76 µM (inactive) | 14.1 µM (inactive) | 5.51 µM (inactive) | 1.82 µM (inactive) | 1.69 µM (inactive) | 0.966 µM (active) | 1.86 µM (inactive) | 1.86 µM (inactive) | 1.64 µM (inactive) | 1.6 µM (inactive) | 1.69 µM (inactive) | 1.79 µM (inactive) | 1.91 µM (inactive) | 0.434 µM (active) | 11.5 µM (inactive)
